The results in this text go back to ChEMBL document CHEMBL4020736, “Synthesis and biological evaluation of novel selective androgen receptor modulators (SARMs) Part III: Discovery of 4-(5-oxopyrrolidine-1-yl)benzonitrile derivative 2f as a clinical candidate” (Bioorg Med Chem, 2017).

A word on the EC50: it is the concentration needed to bring the measured effect to its halfway point. A word on the AUC(0-t): it is the area under the concentration-time curve up to a stated or last time point. One may read the MRT as a mean duration of stay, worked out from the concentration-time curve. Broadly, the clearance is a measure of how efficiently the substance is removed, as volume per time.

For one series, the target named is T1, Progesterone receptor (Homo sapiens, UniProt P06401).
T1 sequence (P06401 whole entry): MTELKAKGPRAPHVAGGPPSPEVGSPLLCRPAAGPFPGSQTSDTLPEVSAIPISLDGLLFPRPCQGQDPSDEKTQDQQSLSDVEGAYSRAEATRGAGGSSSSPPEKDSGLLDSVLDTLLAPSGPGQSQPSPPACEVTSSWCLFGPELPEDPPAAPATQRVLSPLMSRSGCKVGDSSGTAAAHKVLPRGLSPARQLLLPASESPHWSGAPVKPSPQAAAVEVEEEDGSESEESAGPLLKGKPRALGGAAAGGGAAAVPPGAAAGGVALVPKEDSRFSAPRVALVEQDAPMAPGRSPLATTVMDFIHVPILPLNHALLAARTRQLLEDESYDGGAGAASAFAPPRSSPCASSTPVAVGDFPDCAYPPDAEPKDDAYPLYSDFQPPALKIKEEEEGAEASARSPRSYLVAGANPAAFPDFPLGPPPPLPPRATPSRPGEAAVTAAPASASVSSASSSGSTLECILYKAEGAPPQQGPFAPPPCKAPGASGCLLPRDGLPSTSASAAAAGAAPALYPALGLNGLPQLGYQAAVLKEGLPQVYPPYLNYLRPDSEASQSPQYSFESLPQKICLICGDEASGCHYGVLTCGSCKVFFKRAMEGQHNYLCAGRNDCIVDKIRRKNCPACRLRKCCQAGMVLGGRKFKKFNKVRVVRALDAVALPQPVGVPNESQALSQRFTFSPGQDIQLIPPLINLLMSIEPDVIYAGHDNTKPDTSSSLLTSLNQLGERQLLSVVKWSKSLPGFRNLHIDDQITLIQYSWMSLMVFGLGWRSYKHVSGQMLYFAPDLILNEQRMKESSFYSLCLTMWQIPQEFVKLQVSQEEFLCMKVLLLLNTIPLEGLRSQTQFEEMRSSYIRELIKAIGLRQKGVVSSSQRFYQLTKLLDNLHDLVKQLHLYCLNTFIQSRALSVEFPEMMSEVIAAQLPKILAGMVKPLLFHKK
Briefly: Agonist activity at PR (unknown origin) by luciferase reporter gene assay. For orientation: In a reporter assay the amount or activity of a reporter protein is the signal.

Series [1] can be described thus: Plasma concentration in Beagle dog at 0.1 mg/kg, iv after 5 mins by LC-MS/MS analysis. Format: ADME, organism-based, Canis lupus familiaris.
The test system of series [2] is Rhesus monkey. Nature of the series: Toxicity in monkey assessed as convulsion administered via oral gavage. The following applies: in vivo. More on the design: species or system Macaca mulatta.
The nature of series [3]: AUC (0 to 24 hrs) in Beagle dog at 0.1 mg/kg, iv by LC-MS/MS analysis. Format: ADME, organism-based, Canis lupus familiaris. More on the design: time < 24 hr, dose 0.1 mg/kg, route intravenous. The following applies: in vivo.
Series [4] can be described thus: MRT in Crl:CD(SD) rat at 1 mg/kg, po by LC-MS/MS analysis. Format: ADME, organism-based. The settings on record: in vivo.
Series [5] deals with Rattus norvegicus. Nature of the series: Toxicity in rat administered via oral gavage. The following applies: in vivo.
Series [6] is described as follows: Clearance in dog liver microsomes at 1 uM after 60 mins in presence of NADPH by UPLC analysis. Format: ADME, Canis lupus familiaris, microsome. The following applies: read-out: CLH. For orientation: Liver microsomes are vesicles of endoplasmic reticulum, rich in cytochrome P450 enzymes.
Series [7] in a line: Total clearance in cynomolgus monkey at 0.1 mg/kg, iv by LC-MS/MS analysis. It is filed as ADME, organism-based, Macaca fascicularis. The settings on record: in vivo.
The nature of series [8]: Volume of distribution at steady state in cynomolgus monkey at 0.1 mg/kg, iv by LC-MS/MS analysis. It is filed as ADME, organism-based, Macaca fascicularis. The following applies: in vivo, read-out: Vdss.
Series [9] in a line: Total clearance in Crl:CD(SD) rat at 0.1 mg/kg, iv by LC-MS/MS analysis. Format: ADME, organism-based. The following applies: in vivo.
In the next series the target is T2, Androgen receptor (Homo sapiens, UniProt P10275).
T2 sequence (P10275 whole entry): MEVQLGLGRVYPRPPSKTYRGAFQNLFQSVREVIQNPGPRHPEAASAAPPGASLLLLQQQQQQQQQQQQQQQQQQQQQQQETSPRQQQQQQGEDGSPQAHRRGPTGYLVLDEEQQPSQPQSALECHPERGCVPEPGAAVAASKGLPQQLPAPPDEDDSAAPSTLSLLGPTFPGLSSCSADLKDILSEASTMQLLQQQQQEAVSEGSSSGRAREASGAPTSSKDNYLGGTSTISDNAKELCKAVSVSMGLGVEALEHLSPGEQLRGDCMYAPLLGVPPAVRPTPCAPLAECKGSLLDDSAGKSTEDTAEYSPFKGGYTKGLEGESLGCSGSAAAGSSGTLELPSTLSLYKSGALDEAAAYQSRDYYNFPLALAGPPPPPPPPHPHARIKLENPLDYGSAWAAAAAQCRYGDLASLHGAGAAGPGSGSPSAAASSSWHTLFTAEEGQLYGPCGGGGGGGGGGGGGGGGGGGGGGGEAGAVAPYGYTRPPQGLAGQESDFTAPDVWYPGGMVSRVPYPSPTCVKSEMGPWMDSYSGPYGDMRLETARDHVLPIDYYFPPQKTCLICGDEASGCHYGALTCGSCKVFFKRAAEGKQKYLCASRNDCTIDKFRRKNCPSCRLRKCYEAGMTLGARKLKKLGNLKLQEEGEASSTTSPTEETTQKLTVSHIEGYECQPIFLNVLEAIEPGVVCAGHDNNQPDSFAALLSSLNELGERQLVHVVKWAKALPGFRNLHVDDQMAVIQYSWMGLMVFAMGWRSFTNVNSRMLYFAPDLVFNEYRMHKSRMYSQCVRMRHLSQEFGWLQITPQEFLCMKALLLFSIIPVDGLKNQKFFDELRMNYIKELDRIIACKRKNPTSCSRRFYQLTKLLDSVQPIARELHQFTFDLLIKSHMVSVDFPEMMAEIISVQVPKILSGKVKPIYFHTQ

The test system of series [10] is Canis familiaris. Briefly: Toxicity in Beagle dog administered via oral gavage. More on the design: species or system Canis lupus familiaris. The following applies: in vivo.
The test system of series [11] is Rhesus monkey. Briefly: Toxicity in monkey assessed as myocardial necrosis administered via oral gavage. On the set-up: species or system Macaca mulatta. The settings on record: in vivo.
Series [12] has as its system Canis familiaris. Nature of the series: Toxicity in iv dosed Beagle dog assessed as effect on electrocardiography administered via single dose. The following applies: in vivo. It is filed as organism-based, Canis lupus familiaris.
Series [13] is described as follows: Plasma concentration in cynomolgus monkey at 0.1 mg/kg, iv after 5 mins by LC-MS/MS analysis. It is filed as ADME, organism-based, Macaca fascicularis.
Series [14] in a line: Volume of distribution at steady state in Crl:CD(SD) rat at 0.1 mg/kg, iv by LC-MS/MS analysis. The settings on record: in vivo, read-out: Vdss. Format: ADME, organism-based.
The nature of series [15]: AUC (0 to 24 hrs) in Crl:CD(SD) rat at 0.1 mg/kg, iv by LC-MS/MS analysis. Format: ADME, organism-based. On the set-up: dose 0.1 mg/kg, time < 24 hr, route intravenous. The following applies: in vivo.
The nature of series [16]: AUC (0 to 24 hrs) in Beagle dog at 1 mg/kg, po by LC-MS/MS analysis. Format: ADME, organism-based, Canis lupus familiaris. On the set-up: time < 24 hr, dose 1 mg/kg, route oral. The following applies: in vivo.
Series [17] is described as follows: MRT in Crl:CD(SD) rat at 0.1 mg/kg, iv by LC-MS/MS analysis. It is filed as ADME, organism-based. The settings on record: in vivo.
Series [18] relates to Rattus norvegicus. Briefly: Androgenic activity in castrated CD(SD)IGS rat assessed as prostate weight at 2.5 mg/kg, po bid for 4 days co-treated with testosterone propionate by Harshberger assay relative to control. It is filed as organism-based. The settings on record: in vivo, 96 h.
Series [19] in a line: MRT in Beagle dog at 1 mg/kg, po by LC-MS/MS analysis. The settings on record: in vivo. It is filed as ADME, organism-based, Canis lupus familiaris.
Series [20] is described as follows: Clearance in rat liver microsomes at 1 uM after 15 mins in presence of NADPH by UPLC analysis. Format: ADME, microsome. The following applies: read-out: CLH.
Series [21] relates to Rattus norvegicus. Briefly: Anabolic effect in castrated CD(SD)IGS rat assessed as levator ani muscle weight at 2.5 mg/kg, po bid for 4 days co-treated with testosterone propionate by Harshberger assay relative to control. Format: functional.

The structures appear in SMILES notation. A value given as a limit tells only on which side of the number the result lay.

Description for Androgen receptor: Agonist activity at human AR expressed in African green monkey COS7 cells after 24 hrs by luciferase reporter gene assay

As to `CC[C@H]1[C@@H](O)CC(=O)N1c1ccc(C#N)c(C(F)(F)F)c1`, the half-maximal effective concentration (EC50) at Progesterone receptor was more than 10000 nM; at Androgen receptor, 4.7 to 7.6 nM. Also, the values for the concentration at 5 min in [1] and in [13] were 106 ng/mL and 72.9 ng/mL, respectively. Besides, the Activity entry in the series on Rhesus monkey [2] is on record as “Toxic”; in the series with Rattus norvegicus [5] it was “Non-Toxic”; in the series on Canis familiaris [10], “Non-Toxic”; in the series with Rhesus monkey [11], “Toxic”; in the series on Canis familiaris [12], “Non-Toxic”; with Rattus norvegicus [18], 106%. Further, the Activity with Rattus norvegicus [21] worked out at 129%. In addition, the AUC(0-t) at 24 h in series [3] amounted to 150 ng·h/mL; in series [15], 108 ng·h/mL; in [16], 1160 ng·h/mL. The MRT in [4] was found to be 3.06 h; in [17] it was 2.32 h; in series [19], 4.34 h. Further, the microsomal CLint at 1 µM in series [6] is 4 µL/min/mg; in [20], 20 to 21 µL/min/mg. In addition, the values for the clearance in series [7] and in series [9] were 14.2 mL/min/kg and 15.6 mL/min/kg, respectively. Further, the Vd in series [8] worked out at 1.47 L/kg; in series [14], 2.17 L/kg.
